# Data from patent US8124599B2, “Method for treating neuronal and non-neuronal pain” (priority 2005, dated 2012).
# What was measured:
# [1] = test system: acute inflammatory muscle pain; experiment: Formalin lick test for acute inflammatory muscle pain; assay type: in vivo, mice
# Description: The mice used in this work were C57B1/6 strain adults (8 weeks old) and AC1 knockout mice of C57B1/6 background (Wei et al., 2002; Neuron). The animals were housed on a 12 h: 12 h light: dark cycle with food and water available ad libidum. All the protocols were in accordance with the Animal Care Committee of the University of Toronto. Both wild type and the knockouts were well groomed. Experimenters were blind to genotype. Under brief halothane anesthesia, 10 μL of 5% formalin was injected to the left gastronemius muscle. The needle was directed from the lateral side to avoid any bony penetration and the tip was stopped at the middle of the muscle belly. The total time spent licking or biting the injected leg including the thigh and the paw was recorded and totaled every 5 minutes for a period of 2 hours. To study the effect of test compounds on behavior, each compound to be tested was injected intra-peritoneally 30 minutes before the intramuscular injection of formalin.
# [2] = test system: chronic inflammatory muscle pain; experiment: Chronic inflammatory muscle pain (intramuscular carrageenan), mechanical allodynia by von Frey filament; assay type: in vivo, mice
# Description: The mice used in this work were C57B1/6 strain adults (8 weeks old) and AC1 knockout mice of C57B1/6 background (Wei et al., 2002; Neuron). The animals were housed on a 12 h: 12 h light: dark cycle with food and water available ad libidum. All the protocols were in accordance with the Animal Care Committee of the University of Toronto. Both wild type and the knockouts were well groomed. Experimenters were blind to genotype. A muscle model of mechanical allodynia developed originally to study chronic pain (Sluka et al., 2001) was adapted for these experiments. Mice were briefly anaesthetized under halothane. 20μ liters carrageenan (3%, in normal saline pH 7.2) was injected intramuscularly deep into the left gastronemius muscle. Normal saline was used as a control. Injections were carried out on days 1 and 5. Behavioral nociceptive responses were measured on days 1, 2, 5 (before and after injection), 14 and 28. Mice were placed in a plexi-glass restrainer and allowed to acclimate for 30 minutes prior to testing. Mechanical allodynia was assessed based on the responsiveness of the hind paw to the application of von Frey filaments (Stoelting, Wood Dale, Ill.) to the point of bending. […] Ten trials were carried out each time at an interval of 5 minutes and the results were expressed as a percentage of positive responses. […]
# neuropathic pain = experiment: Neuropathic pain (common peroneal nerve ligation), mechanical allodynia; assay type: in vivo, mice; conditions: 0.1 and 1 mg/kg body weight
# Description: The mice used in this work were C57B1/6 strain adults (8 weeks old) and AC1 knockout mice of C57B1/6 background (Wei et al., 2002; Neuron). The animals were housed on a 12 h: 12 h light: dark cycle with food and water available ad libidum. All the protocols were in accordance with the Animal Care Committee of the University of Toronto. Both wild type and the knockouts were well groomed. Experimenters were blind to genotype. Mice were placed in a plexi-glass restrainer and allowed to acclimate for 30 minutes prior to testing. Mechanical allodynia was assessed based on the responsiveness of the hind paw to the application of von Frey filaments (Stoelting, Wood Dale, Ill.) to the point of bending. Positive responses include licking, biting and sudden withdrawing of the hind paw. Experiments were carried out to characterize the threshold stimulus. […] This filament was then used to test mechanical allodynia. Ten trials were carried out each time at an interval of 5 minutes and the results were expressed as a percentage of positive responses. Positive responses included prolonged hind paw withdrawal followed by licking or scratching. Neuropathic pain was induced by ligating the common peroneal nerve as previously known in the art. […] The effect of AC1 inhibition was assessed on maximal mechanical allodynia over the dorsum of the foot on the ipsilateral side of ligation on day 7. […]
# [3] = test system: combined chronic inflammatory pain and neuropathic pain; experiment: Combination of chronic inflammatory pain and neuropathic pain, mechanical allodynia; assay type: in vivo, mice; conditions: i.p. pre-treatment
# Description: The mice used in this work were C57B1/6 strain adults (8 weeks old) and AC1 knockout mice of C57B1/6 background (Wei et al., 2002; Neuron). The animals were housed on a 12 h: 12 h light: dark cycle with food and water available ad libidum. All the protocols were in accordance with the Animal Care Committee of the University of Toronto. Both wild type and the knockouts were well groomed. Experimenters were blind to genotype. A muscle model of mechanical allodynia developed originally to study chronic pain (Sluka et al., 2001) was adapted for these experiments. Mice were briefly anaesthetized under halothane. 20μ liters carrageenan (3%, in normal saline pH 7.2) was injected intramuscularly deep into the left gastronemius muscle. Normal saline was used as a control. Injections were carried out on days 1 and 5. Behavioral nociceptive responses were measured on days 1, 2, 5 (before and after injection), 14 and 28. […] Mechanical allodynia was assessed based on the responsiveness of the hind paw to the application of von Frey filaments (Stoelting, Wood Dale, Ill.) to the point of bending. […] Ten trials were carried out each time at an interval of 5 minutes and the results were expressed as a percentage of positive responses. […] The effect of AC1 inhibition was assessed on maximal mechanical allodynia over the dorsum of the foot on the ipsilateral side of ligation on day 7. […]
# [4] = test system: mechanical allodynia in pain model; experiment: Oral administration to pain model (rat), mechanical allodynia; assay type: in vivo; conditions: 1 mg/kg/3 ml, as compared with the response to gabapentin
Compound,"dose of peak response, licking response of acute muscle inflammatory pain ([1]; dose range 0.1 to 5 mg/kg) [mg/kg body weight]","licking response of acute muscle inflammatory pain ([1]; dose range of 0.1 to 5 mg/kg bodyweight, intra-peritoneally 30 minutes before formalin, P<0.001)","mechanical allodynia in chronic inflammatory muscle pain, comparison of dosages ([2]; 1 mg/kg versus 0.1 mg/kg)","mechanical allodynia in chronic inflammatory muscle pain ([2]; 0.1 and 1 mg/kg body weight, von Frey filament)",allodynia in neuropathic pain (neuropathic pain),mechanical allodynia in combined chronic inflammatory and neuropathic pain ([3]; 0.1 and 1 mg/kg body weight),mechanical allodynia in combined chronic inflammatory and neuropathic pain ([3]; 0.1 mg/kg and 1.1 mg/kg body weight),mechanical allodynia after oral administration [4]
Nc1ncnc2c1ncn2CCNCCCCCO [HTS09836],1,significant reduction,superior effect,significant reduction in mechanical allodynia,significantly reduced,significantly reduced,,
Nc1ncnc2c1ncn2CCNCCCCCO [NB001],,,,,,,significantly reduced,significant reduction in mechanical allodynia
